Data as given in ChEMBL document CHEMBL4229332, “Novel multi-target azinesulfonamides of cyclic amine derivatives as potential antipsychotics with pro-social and pro-cognitive effects” (Eur J Med Chem, 2018).

Key:
[1] = molecular target: 5-hydroxytryptamine receptor 2A (Homo sapiens, UniProt P28223); assay: biochemical; assay type: cell-based, CHO-K1
[2] = molecular target: T1, 5-hydroxytryptamine receptor 1A (Homo sapiens) (UniProt P08908); assay: Partial agonist activity at human 5-HT1AR expressed in CHO-K1 cells assessed as increase in cAMP accumulation at 10^-6 M by chemiluminescence-based assay relative to serotonin; assay type: functional, cell-based
T1 sequence (whole entry): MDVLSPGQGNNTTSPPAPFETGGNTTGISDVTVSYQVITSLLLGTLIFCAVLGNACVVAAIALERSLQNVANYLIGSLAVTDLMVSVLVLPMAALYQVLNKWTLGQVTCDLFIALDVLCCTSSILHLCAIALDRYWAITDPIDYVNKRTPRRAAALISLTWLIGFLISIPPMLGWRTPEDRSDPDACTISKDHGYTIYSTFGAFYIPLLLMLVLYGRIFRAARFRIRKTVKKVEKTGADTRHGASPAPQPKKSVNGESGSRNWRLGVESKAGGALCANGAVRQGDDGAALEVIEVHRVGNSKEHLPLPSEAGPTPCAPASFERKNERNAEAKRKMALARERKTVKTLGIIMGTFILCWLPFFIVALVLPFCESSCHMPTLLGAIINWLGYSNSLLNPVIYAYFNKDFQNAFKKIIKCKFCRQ

[3] = Drug level in Wistar rat plasma at 3 mg/kg, ip measured after 60 mins by LC-MS/MS analysis; assay type: ADME, organism-based
[4] = molecular target: Voltage-gated inwardly rectifying potassium channel KCNH2 (Homo sapiens, UniProt Q12809); assay: Inhibition of human ERG expressed in CHOK1 cells at 10 to 50 uM by whole-cell patch clamp method; assay type: cell-based
Cavia porcellus [5] = assay: Cardiotoxicity in guinea pig assessed as effect on QT interval time at 5 mg/kg, ip measured after 20 mins by ECG analysis (reference value: 127.6 to 131.2 milliseconds); assay type: toxicity, organism-based; details: in vivo
Cavia porcellus [6] = assay: Cardiotoxicity in guinea pig assessed as effect on QT interval time at 5 mg/kg, ip measured after 40 mins by ECG analysis (reference value: 127.6 to 131.2 milliseconds); assay type: toxicity, organism-based; details: in vivo
Cavia porcellus [7] = assay: Cardiotoxicity in guinea pig assessed as effect on QT interval time at 5 mg/kg, ip measured after 60 mins by ECG analysis (reference value: 127.6 to 131.2 milliseconds); assay type: toxicity, organism-based; details: in vivo, 1 h
Cavia porcellus [8] = assay: Cardiotoxicity in guinea pig assessed as effect on PR interval time at 5 mg/kg, ip measured after 20 mins by ECG analysis (reference value: 58.8 to 63.8 milliseconds); assay type: toxicity, organism-based; details: in vivo
Cavia porcellus [9] = assay: Cardiotoxicity in guinea pig assessed as effect on PR interval time at 5 mg/kg, ip measured after 60 mins by ECG analysis (reference value: 58.8 to 63.8 milliseconds); assay type: toxicity, organism-based; details: in vivo, 1 h
Cavia porcellus [10] = assay: Cardiotoxicity in guinea pig assessed as effect on QRS interval time at 5 mg/kg, ip measured after 10 mins by ECG analysis (reference value: 26.2 to 31.6 milliseconds); assay type: toxicity, organism-based; details: in vivo
Cavia porcellus [11] = assay: Cardiotoxicity in guinea pig assessed as effect on QRS interval time at 5 mg/kg, ip measured after 30 mins by ECG analysis (reference value: 26.2 to 31.6 milliseconds); assay type: toxicity, organism-based; details: in vivo, 0.5 h
Cavia porcellus [12] = assay: Cardiotoxicity in guinea pig assessed as effect on QRS interval time at 5 mg/kg, ip measured after 60 mins by ECG analysis (reference value: 26.2 to 31.6 milliseconds); assay type: toxicity, organism-based; details: in vivo, 1 h
Cavia porcellus [13] = assay: Cardiotoxicity in guinea pig assessed as effect on RR interval time at 5 mg/kg, ip measured after 40 mins by ECG analysis (reference value: 208.4 to 238.4 milliseconds); assay type: toxicity, organism-based; details: in vivo
Cavia porcellus [14] = assay: Cardiotoxicity in guinea pig assessed as effect on RR interval time at 5 mg/kg, ip measured after 80 mins by ECG analysis (reference value: 208.4 to 238.4 milliseconds); assay type: toxicity, organism-based; details: in vivo
Cavia porcellus [15] = assay: Cardiotoxicity in guinea pig assessed as effect on QTc interval time at 5 mg/kg, ip measured after 20 mins by ECG analysis (reference value: […] to […] milliseconds); assay type: toxicity, organism-based; details: in vivo
Cavia porcellus [16] = assay: Cardiotoxicity in guinea pig assessed as effect on QTc interval time at 5 mg/kg, ip measured after 30 mins by ECG analysis (reference value: […] to […] milliseconds); assay type: toxicity, organism-based; details: in vivo, 0.5 h
Cavia porcellus [17] = assay: Cardiotoxicity in guinea pig assessed as effect on QTc interval time at 5 mg/kg, ip measured after 40 mins by ECG analysis (reference value: […] to […] milliseconds); assay type: toxicity, organism-based; details: in vivo
Cavia porcellus [18] = assay: Cardiotoxicity in guinea pig assessed as effect on QTc interval time at 5 mg/kg, ip measured after 60 mins by ECG analysis (reference value: […] to […] milliseconds); assay type: toxicity, organism-based; details: in vivo, 1 h
Cavia porcellus [19] = assay: Cardiotoxicity in guinea pig assessed as effect on QTc interval time at 5 mg/kg, ip measured after 80 mins by ECG analysis (reference value: […] to […] milliseconds); assay type: toxicity, organism-based; details: in vivo
Cavia porcellus [20] = assay: Cardiotoxicity in guinea pig assessed as effect on frequence of heart rate at 5 mg/kg, ip measured after 10 mins by ECG analysis (reference value: 262 to 296 /min); assay type: toxicity, organism-based; details: in vivo
Cavia porcellus [21] = assay: Cardiotoxicity in guinea pig assessed as effect on frequence of heart rate at 5 mg/kg, ip measured after 30 mins by ECG analysis (reference value: 262 to 296 /min); assay type: toxicity, organism-based; details: in vivo, 0.5 h
Cavia porcellus [22] = assay: Cardiotoxicity in guinea pig assessed as effect on frequence of heart rate at 5 mg/kg, ip measured after 40 mins by ECG analysis (reference value: 262 to 296 /min); assay type: toxicity, organism-based; details: in vivo
Cavia porcellus [23] = assay: Cardiotoxicity in guinea pig assessed as effect on frequence of heart rate at 5 mg/kg, ip measured after 80 mins by ECG analysis (reference value: 262 to 296 /min); assay type: toxicity, organism-based; details: in vivo
Cytochrome P450 1A2 = Cytochrome P450 1A2 (Homo sapiens, UniProt P05177); assay: Inhibition of human supersome CYP1A2 using caffeine as substrate assessed as caffeine 3-N-demethylation after 30 mins by HPLC-UV detection; assay type: ADME
Cytochrome P450 3A4 = Cytochrome P450 3A4 (Homo sapiens, UniProt P08684); assay: Inhibition of human supersome CYP3A4 using testosterone as substrate assessed as testosterone 6beta-hydroxylation after 30 mins by HPLC-UV detection; assay type: ADME
[24] = Toxicity in ip dosed Sprague-Dawley rat assessed as sedation pretreated for 60 mins followed by PCP addition measured for 30 mins starting 15 min after rat reintroduction to auto-tracks; assay type: organism-based; details: in vivo
[25] = molecular target: 5-hydroxytryptamine receptor 2B (Homo sapiens) (UniProt P41595); assay: Agonist activity at human 5-HT2BR expressed in CHO cells assessed as induction of IP1 accumulation at 10^-6 M after 30 mins by HTRF method; assay type: functional, cell-based
[26] = molecular target: T2, 5-hydroxytryptamine receptor 1A (Homo sapiens, UniProt P08908); assay: biochemical
T2 sequence (P08908 whole entry): T1 sequence (whole entry)
Description: Displacement of [3H]-8-OH-DPAT from human 5-HT1AR expressed in HEK293 cell membranes after 1 hr by microbeta counting method

Rattus norvegicus [27] = organism: Rattus norvegicus; assay: animal or person; details: Sprague-Dawley, ip, read-out: MED
Description: Antipsychotic activity in ip dosed Sprague-Dawley rat assessed as reduction in PCP-induced hyper-locomotion pretreated for 60 mins followed by PCP addition measured for 30 mins starting 15 min after rat reintroduction to auto-tracks

Rattus norvegicus [28] = organism: Rattus norvegicus; assay: animal or person; details: Sprague-Dawley, ip, read-out: MED; remark: listed apart in the source
Description: Reversal of PCP-induced cognitive impairment in ip dosed Sprague-Dawley rat assessed as reduction in time spent exploring novel object over familiar object pretreated for 60 mins followed by PCP addition by novel object recognition assay

Rattus norvegicus [29] = organism: Rattus norvegicus; assay: animal or person; details: Sprague-Dawley, ip, read-out: MED; remark: listed apart in the source
Description: Antipsychotic activity in ip dosed Sprague-Dawley rat assessed as suppression of avoidance behavior by avoiding foot shock administered 60 mins prior to test by conditioned avoidance response test

Chain of Cytochrome P450 1A2 (P05177 whole entry): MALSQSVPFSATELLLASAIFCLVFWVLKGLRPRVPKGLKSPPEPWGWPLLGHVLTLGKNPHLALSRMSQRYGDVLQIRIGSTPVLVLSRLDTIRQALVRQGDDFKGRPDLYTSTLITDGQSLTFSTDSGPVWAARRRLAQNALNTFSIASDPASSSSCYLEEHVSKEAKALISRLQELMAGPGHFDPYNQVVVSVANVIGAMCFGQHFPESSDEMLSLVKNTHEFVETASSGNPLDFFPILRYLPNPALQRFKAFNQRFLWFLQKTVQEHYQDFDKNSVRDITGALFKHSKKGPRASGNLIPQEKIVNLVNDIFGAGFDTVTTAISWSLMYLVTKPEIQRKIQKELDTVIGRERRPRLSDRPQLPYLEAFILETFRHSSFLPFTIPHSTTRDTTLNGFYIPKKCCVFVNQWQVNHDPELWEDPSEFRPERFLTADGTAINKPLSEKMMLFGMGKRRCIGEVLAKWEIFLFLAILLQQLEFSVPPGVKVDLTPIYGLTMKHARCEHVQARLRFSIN
Chain of Cytochrome P450 3A4 (P08684 whole entry): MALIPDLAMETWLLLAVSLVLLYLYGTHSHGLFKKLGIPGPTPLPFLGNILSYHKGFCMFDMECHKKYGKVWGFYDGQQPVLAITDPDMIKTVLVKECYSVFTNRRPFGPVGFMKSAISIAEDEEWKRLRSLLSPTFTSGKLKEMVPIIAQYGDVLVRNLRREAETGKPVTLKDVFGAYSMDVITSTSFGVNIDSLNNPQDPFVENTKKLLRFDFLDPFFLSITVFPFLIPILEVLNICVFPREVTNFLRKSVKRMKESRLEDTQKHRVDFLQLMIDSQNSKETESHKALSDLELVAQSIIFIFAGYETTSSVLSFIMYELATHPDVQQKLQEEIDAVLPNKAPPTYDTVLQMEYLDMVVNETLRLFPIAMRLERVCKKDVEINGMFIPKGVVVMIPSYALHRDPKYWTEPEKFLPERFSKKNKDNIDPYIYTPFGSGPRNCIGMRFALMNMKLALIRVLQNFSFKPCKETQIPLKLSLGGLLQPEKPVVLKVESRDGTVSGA
Chain of Voltage-gated inwardly rectifying potassium channel KCNH2 (Q12809 whole entry): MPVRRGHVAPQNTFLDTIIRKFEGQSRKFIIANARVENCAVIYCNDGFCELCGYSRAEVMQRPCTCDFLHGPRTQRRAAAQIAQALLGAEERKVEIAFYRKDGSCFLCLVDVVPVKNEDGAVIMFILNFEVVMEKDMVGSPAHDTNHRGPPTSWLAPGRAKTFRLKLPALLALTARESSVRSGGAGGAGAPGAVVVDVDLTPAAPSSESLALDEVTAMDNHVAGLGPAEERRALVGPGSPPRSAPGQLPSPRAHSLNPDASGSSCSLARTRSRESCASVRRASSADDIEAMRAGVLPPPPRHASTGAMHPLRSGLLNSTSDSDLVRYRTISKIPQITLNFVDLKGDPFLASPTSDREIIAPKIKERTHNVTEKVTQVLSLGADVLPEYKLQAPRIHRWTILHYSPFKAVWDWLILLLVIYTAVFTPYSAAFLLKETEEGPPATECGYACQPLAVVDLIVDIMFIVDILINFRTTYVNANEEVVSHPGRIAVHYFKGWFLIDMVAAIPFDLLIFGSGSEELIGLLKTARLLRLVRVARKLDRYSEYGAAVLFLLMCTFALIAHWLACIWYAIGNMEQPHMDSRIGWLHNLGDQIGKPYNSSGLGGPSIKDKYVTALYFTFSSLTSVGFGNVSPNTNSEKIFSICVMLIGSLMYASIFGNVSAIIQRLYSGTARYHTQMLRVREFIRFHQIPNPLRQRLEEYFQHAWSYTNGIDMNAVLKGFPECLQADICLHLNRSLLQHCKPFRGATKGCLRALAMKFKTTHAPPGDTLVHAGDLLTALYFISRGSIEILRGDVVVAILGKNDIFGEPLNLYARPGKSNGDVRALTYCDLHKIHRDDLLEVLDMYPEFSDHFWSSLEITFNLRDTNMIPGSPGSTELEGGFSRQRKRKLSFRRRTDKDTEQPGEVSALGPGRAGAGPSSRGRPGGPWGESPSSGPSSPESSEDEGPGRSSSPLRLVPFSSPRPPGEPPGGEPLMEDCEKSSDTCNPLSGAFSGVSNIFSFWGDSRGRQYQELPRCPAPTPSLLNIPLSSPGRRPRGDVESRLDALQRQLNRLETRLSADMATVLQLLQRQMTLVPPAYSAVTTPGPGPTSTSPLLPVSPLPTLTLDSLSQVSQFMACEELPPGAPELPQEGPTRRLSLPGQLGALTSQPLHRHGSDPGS
Chain of 5-hydroxytryptamine receptor 2A (P28223 whole entry): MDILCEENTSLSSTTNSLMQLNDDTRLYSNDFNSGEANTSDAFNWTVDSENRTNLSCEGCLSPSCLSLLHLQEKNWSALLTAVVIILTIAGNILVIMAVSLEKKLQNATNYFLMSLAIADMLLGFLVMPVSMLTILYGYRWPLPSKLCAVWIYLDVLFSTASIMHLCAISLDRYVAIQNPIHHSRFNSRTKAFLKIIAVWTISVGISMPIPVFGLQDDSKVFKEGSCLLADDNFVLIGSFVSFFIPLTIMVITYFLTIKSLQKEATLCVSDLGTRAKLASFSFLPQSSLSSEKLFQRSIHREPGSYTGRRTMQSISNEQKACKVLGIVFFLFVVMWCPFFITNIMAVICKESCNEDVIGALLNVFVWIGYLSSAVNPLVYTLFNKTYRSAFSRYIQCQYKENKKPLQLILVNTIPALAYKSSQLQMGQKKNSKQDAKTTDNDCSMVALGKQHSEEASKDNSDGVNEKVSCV
Chain of 5-hydroxytryptamine receptor 2B (Homo sapiens) (P41595 whole entry): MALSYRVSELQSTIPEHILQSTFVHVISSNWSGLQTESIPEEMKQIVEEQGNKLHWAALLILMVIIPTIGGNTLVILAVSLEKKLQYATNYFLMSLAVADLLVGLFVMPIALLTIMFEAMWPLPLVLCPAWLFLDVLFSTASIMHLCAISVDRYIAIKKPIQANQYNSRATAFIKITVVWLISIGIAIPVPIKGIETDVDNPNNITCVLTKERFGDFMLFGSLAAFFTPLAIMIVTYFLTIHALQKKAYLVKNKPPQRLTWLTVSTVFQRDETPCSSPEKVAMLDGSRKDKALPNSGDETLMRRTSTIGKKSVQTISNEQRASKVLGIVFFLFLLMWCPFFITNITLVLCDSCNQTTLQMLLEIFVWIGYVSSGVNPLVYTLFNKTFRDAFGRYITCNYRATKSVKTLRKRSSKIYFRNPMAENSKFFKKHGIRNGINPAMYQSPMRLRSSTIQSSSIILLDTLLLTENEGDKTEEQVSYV

Compound | Ki [1] | Activity [2] | concentration at 1 h [3] | inhibition (INH) [4] | Time (Cavia porcellus [5]) | Time (Cavia porcellus [6]) | Time (Cavia porcellus [7]) | Time (Cavia porcellus [8]) | Time (Cavia porcellus [9]) | Time (Cavia porcellus [10]) | Time (Cavia porcellus [11]) | Time (Cavia porcellus [12]) | Time (Cavia porcellus [13]) | Time (Cavia porcellus [14]) | Time (Cavia porcellus [15]) | Time (Cavia porcellus [16]) | Time (Cavia porcellus [17]) | Time (Cavia porcellus [18]) | Time (Cavia porcellus [19]) | Activity (Cavia porcellus [20]) | other results
O=S(=O)(c1cncc2ccccc12)N1CCC[C@H]1CCN1CCN(c2nsc3ccccc23)CC1 | 13 nM | 5.3% | 50.2 nM | Active | 121.6 ms | 125.4 ms | 125.8 ms | 59.6 ms | 63.2 ms | 25.4 ms | 26.8 ms | 27.2 ms | 211 ms | 213 ms | 269.6 ms | 280.6 ms | 274.2 ms | 275.8 ms | 273.4 ms | 304 min⁻¹ | Activity (Cavia porcellus [21]): 287 min⁻¹; Activity (Cavia porcellus [22]): 288 min⁻¹; Activity (Cavia porcellus [23]): 284 min⁻¹; IC50 (Cytochrome P450 1A2): > 100000 nM; IC50 (Cytochrome P450 3A4): 23000 nM; MTD at 0.5 h [24]: 3 mg/kg; Kb [25]: 3 nM; Ki [26]: 37 nM; minimal effective dose (Rattus norvegicus [27]): 1 mg/kg; minimal effective dose (Rattus norvegicus [28]): 1 mg/kg; minimal effective dose (Rattus norvegicus [29]): 3 mg/kg
O=S(=O)(c1cncc2ccccc12)N1CCC[C@H]1CCN1CCN(c2cccc3sccc23)CC1 | 9 nM | 40.6% | 45 nM | Not Active | 129 ms | 125.2 ms | 124.6 ms | 63.8 ms | 63.4 ms | 30.8 ms | 32.4 ms | 30.4 ms | 227.2 ms | 214 ms | 265 ms | 262.8 ms | 263.4 ms | 266.6 ms | 268 ms | 263 min⁻¹ | Activity (Cavia porcellus [21]): 264 min⁻¹; Activity (Cavia porcellus [22]): 263 min⁻¹; Activity (Cavia porcellus [23]): 286 min⁻¹; IC50 (Cytochrome P450 1A2): > 100000 nM; IC50 (Cytochrome P450 3A4): 10000 nM; MTD at 0.5 h [24]: 3 mg/kg; inhibition [25]: 14%; Ki [26]: 18 nM; minimal effective dose (Rattus norvegicus [27]): 1 mg/kg; minimal effective dose (Rattus norvegicus [28]): 1 mg/kg; minimal effective dose (Rattus norvegicus [29]): 3 mg/kg
